Reference: patent publication US20100298141A1, “SUBSTITUTED PYRIDINE N-OXIDE HERBICIDES” (E. I. DU PONT DE NEMOURS AND COMPANY, priority 2007, published 2010)

Assays:
barnyardgrass = assay: Test G preemergence test; type: in vivo, Echinochloa crus-galli; settings: scale 0 to 100
giant foxtail = assay: Test G preemergence test; type: in vivo, Setaria faberii; settings: scale 0 to 100
soybean = assay: Test G preemergence test; type: in vivo, Glycine max; settings: scale 0 to 100
annual bluegrass = assay: Test D preemergence test; type: in vivo, Poa annua; settings: scale 0 to 100
Summary of the method: (§1)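 Test chemicals, formulated in a surfactant-containing non-phytotoxic solvent mixture, are applied preemergence after the seeds are planted. Entries shown as a dash mean no result was obtained.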

millet = assay: Test G preemergence test; type: in vivo, Panicum miliaceum; settings: scale 0 to 100
common sowthistle = assay: Test F preemergence test; type: in vivo, Sonchus oleraceous; settings: scale 0 to 100
Summary of the method: (§2)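 Compound in a non-phytotoxic solvent blend with surfactant is applied preemergence to planted seeds or postemergence to sugarcane plants. Plants and controls stay in the greenhouse 14 to 21 days before visual comparison.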

Canada horseweed = assay: Test F preemergence test; type: in vivo, Conyza canadensis; settings: scale 0 to 100
Summary of the method: as §2

wild oat = assay: Test D preemergence test; type: in vivo, Avena fatua; settings: scale 0 to 100
Summary of the method: as §1

cotton = assay: Test G preemergence test; type: in vivo, Gossypium hirsutum; settings: scale 0 to 100
field sandbur = assay: Test G preemergence test; type: in vivo, Cenchrus incertus; settings: scale 0 to 100
Italian ryegrass = assay: Test D preemergence test; type: in vivo, Lolium multiflorum; settings: scale 0 to 100
Summary of the method: as §1

common chickweed = assay: Test F preemergence test; type: in vivo, Stellaria media; settings: scale 0 to 100
Summary of the method: as §2

Russian thistle = assay: Test F preemergence test; type: in vivo, Salsola kali; settings: 125 g ai/ha, preemergence, scale 0 to 100
Summary of the method: as §2

corn = assay: Test G preemergence test; type: in vivo, Zea mays; settings: scale 0 to 100

SMILES: Cc1cc[n+]([O-])c(S(=O)(=O)C(Cl)c2c(C(F)(F)F)nn(C)c2Cl)c1 (racemic) [Compound 22]
- Plant response rating, Barnyardgrass (barnyardgrass; 31 g ai/ha): 0
- Plant response rating, Barnyardgrass (barnyardgrass; 62 g ai/ha): 95
- Plant response rating, Barnyardgrass (barnyardgrass; 125 g ai/ha): 100
- Plant response rating, Barnyardgrass (barnyardgrass; 250 g ai/ha): 100
- Plant response rating, Foxtail, Giant (giant foxtail; 31 g ai/ha): 65
- Plant response rating, Foxtail, Giant (giant foxtail; 62 g ai/ha): 70
- Plant response rating, Foxtail, Giant (giant foxtail; 125 g ai/ha): 75
- Plant response rating, Foxtail, Giant (giant foxtail; 250 g ai/ha): 75
- Plant response rating, Soybean (soybean; 31 g ai/ha): 0
- Plant response rating, Soybean (soybean; 62 g ai/ha): 0
- Plant response rating, Soybean (soybean; 125 g ai/ha): 0
- Plant response rating, Soybean (soybean; 250 g ai/ha): 0
- Plant response rating, Bluegrass (annual bluegrass; 31 g ai/ha): 20
- Plant response rating, Bluegrass (annual bluegrass; 62 g ai/ha): 65
- Plant response rating, Bluegrass (annual bluegrass; 125 g ai/ha): 95
- Plant response rating, Bluegrass (annual bluegrass; 250 g ai/ha): 100
- Plant response rating, Millet (millet; 31 g ai/ha): 0
- Plant response rating, Millet (millet; 62 g ai/ha): 35
- Plant response rating, Millet (millet; 125 g ai/ha): 60
- Plant response rating, Millet (millet; 250 g ai/ha): 100
- Sowthistle plant response rating (common sowthistle; 62 g ai/ha, Preemergence): 90
- Sowthistle plant response rating (common sowthistle; 125 g ai/ha, preemergence): 100
- Plant response rating, Sowthistle (common sowthistle; Preemergence, 31 g ai/ha): 90
- Horseweed plant response rating (Canada horseweed; 62 g ai/ha, Preemergence): 0
- Horseweed plant response rating (Canada horseweed; 125 g ai/ha, preemergence): 100
- Plant response rating, Horseweed (Canada horseweed; Preemergence, 16 g ai/ha): 0
- Plant response rating, Horseweed (Canada horseweed; Preemergence, 31 g ai/ha): 0
- Plant response rating, Oat, Wild (wild oat; 31 g ai/ha): 0
- Plant response rating, Oat, Wild (wild oat; 62 g ai/ha): 0
- Plant response rating, Oat, Wild (wild oat; 125 g ai/ha): 0
- Plant response rating, Oat, Wild (wild oat; 250 g ai/ha): 15
- Plant response rating, Cotton (cotton; 31 g ai/ha): 0
- Plant response rating, Cotton (cotton; 62 g ai/ha): 0
- Plant response rating, Cotton (cotton; 125 g ai/ha): 0
- Plant response rating, Cotton (cotton; 250 g ai/ha): 0
- Plant response rating, Sandbur (field sandbur; 31 g ai/ha): 15
- Plant response rating, Sandbur (field sandbur; 62 g ai/ha): 60
- Plant response rating, Sandbur (field sandbur; 125 g ai/ha): 85
- Plant response rating, Sandbur (field sandbur; 250 g ai/ha): 100
- Plant response rating, Ryegrass, Italian (Italian ryegrass; 31 g ai/ha): 0
- Plant response rating, Ryegrass, Italian (Italian ryegrass; 62 g ai/ha): 30
- Plant response rating, Ryegrass, Italian (Italian ryegrass; 125 g ai/ha): 35
- Plant response rating, Ryegrass, Italian (Italian ryegrass; 250 g ai/ha): 55
- Chickweed plant response rating (common chickweed; 62 g ai/ha, Preemergence): 100
- Chickweed plant response rating (common chickweed; 125 g ai/ha, preemergence): 100
- Plant response rating, Chickweed (common chickweed; Preemergence, 16 g ai/ha): 0
- Plant response rating, Chickweed (common chickweed; Preemergence, 31 g ai/ha): 65
- Russian Thistle plant response rating (Russian thistle): 100
- Plant response rating, Corn (corn; 31 g ai/ha): 0
- Plant response rating, Corn (corn; 62 g ai/ha): 0
- Plant response rating, Corn (corn; 125 g ai/ha): 0
- Plant response rating, Corn (corn; 250 g ai/ha): 0
